# Measured values as given in patent publication US20260085073A1, “PYRAZOLYLCARBOXAMIDE COMPOUNDS AND THEIR USE IN THERAPY” (Hotspot Therapeutics, Inc., priority 2022, published 2026).
# Biological target: T1, MALT1 (Homo sapiens, UniProt Q9UDY8)
# T1 construct: Avi-tagged FL MALT-1 (Pharmaron, stored at −70° C.); Avi-tag
# T1 sequence (Q9UDY8 1-824): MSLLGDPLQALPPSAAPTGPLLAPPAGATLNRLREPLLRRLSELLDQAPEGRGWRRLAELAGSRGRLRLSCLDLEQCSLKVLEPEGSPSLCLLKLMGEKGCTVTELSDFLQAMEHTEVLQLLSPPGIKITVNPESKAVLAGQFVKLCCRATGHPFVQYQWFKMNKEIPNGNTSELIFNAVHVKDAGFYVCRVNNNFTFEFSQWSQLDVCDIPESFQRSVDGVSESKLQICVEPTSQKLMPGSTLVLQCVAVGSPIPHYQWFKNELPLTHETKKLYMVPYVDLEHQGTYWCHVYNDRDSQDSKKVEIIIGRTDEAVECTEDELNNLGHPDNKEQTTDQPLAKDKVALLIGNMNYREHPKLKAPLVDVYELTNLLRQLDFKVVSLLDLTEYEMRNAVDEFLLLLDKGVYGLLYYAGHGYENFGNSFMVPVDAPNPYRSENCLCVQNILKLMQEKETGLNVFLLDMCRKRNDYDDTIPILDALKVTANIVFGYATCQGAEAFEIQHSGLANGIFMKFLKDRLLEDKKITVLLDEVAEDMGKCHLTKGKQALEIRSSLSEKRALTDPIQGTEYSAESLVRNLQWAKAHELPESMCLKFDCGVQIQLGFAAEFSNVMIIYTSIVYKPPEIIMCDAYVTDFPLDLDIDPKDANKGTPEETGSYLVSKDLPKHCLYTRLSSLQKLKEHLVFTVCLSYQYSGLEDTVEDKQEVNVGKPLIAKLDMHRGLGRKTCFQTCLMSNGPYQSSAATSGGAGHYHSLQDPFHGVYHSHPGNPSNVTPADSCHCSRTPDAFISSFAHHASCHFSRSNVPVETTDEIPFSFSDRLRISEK
# Experiment: MALT1 inhibition assay (MALT-1 Fluorogenic Peptide Cleavage Assay, Ac-LRSR-AMC substrate)
# Format: biochemical
# Conditions: Avi-tagged FL MALT-1, 30 min pre-incubation, 90 min reaction at room temperature, fluorescence intensity
# Protocol: Example 71—MALT1 Inhibition Assay
# Compounds were tested for ability to bind to MALT1.
# Inhibition of MALT1 activity by the presence of small molecules was evaluated using MALT-1 Fluorogenic Peptide Cleavage Assay. The assay utilizes a quenched AMC-labelled peptide that contains the MALT-1 recognition sequence and cleavage site (LRSR). MALT-1 mediated cleavage of the peptide relieves the quenching and leads to an increase in fluorescence at excitation (342 nm) and emission (441 nm).
# The following reagents were obtained commercially and used to prepare standard reagent formulations as further described below: N-2-hydroxyethylpiperazine-N-2-ethane sulfonic acid (HEPES) (1 M, pH 7.5, stored at 4° C.), sodium citrate (stored at RT), tris(2-carboxyethyl) phosphine hydrochloride (T-CEP) (500 mM, stored at −20° C.), ethylenediaminetetraacetic acid (EDTA) (500 mM, stored at RT), dimethylsulfoxide (DMSO, stored at RT), 3-[(3-cholamidopropyl)dimethylammonio]-1-propane sulphate (CHAPS) (stored at RT), dimethylsulfoxide (DMSO), DMSO (Fisher Scientific, stored at RT), Avi-tagged FL MALT-1 (Pharmaron, stored at −70° C.), Ac-LRSR-AMC Peptide (SM Biochemicals, stored at −20° C.), and ultrapure water (MILLI-QR).
# The standard reagent formulations used in this assay were prepared and stored as follows. A 1.1 M solution of sodium citrate (161.3 g, 500 mL) was prepared and stored at room temperature. A 10% (w/v) CHAPS solution (2.0 g, 20 mL) was prepared and stored at 4° C. A 500 mM HEPES solution having pH of 6.89 was prepared from 200 mL of a 1 M HEPES solution having a pH of 7.5 using concentrated hydrochloric acid and brought to a final volume of 400 mL with MILLI-QR H2O. The substrate, 10 mM Ac-LRSR-AMC Peptide, was prepared (10 mg, 1.370 mL DMSO) and stored at −20° C.
# Compounds were plated to provide a 2% DMSO final concentration using a ProxiPlate-384 Plus F Black 384-shallow well microplate. The assay-ready plates were equilibrated to room temperature. A reaction buffer (30 mL total volume) was prepared by combining HEPES (pH 6.89, 25 mM, 1.5 mL), sodium citrate (660 mM, 18.0 mL), T-CEP (1 mM, 0.06 mL), EDTA ([…], 0.06 mL), CHAPS (0.05%, 0.15 mL), DMSO (2%, 0.6 mL), and MILLI-QR H2O (10.23 mL; 9.63 mL when backfilled to 2% DMSO) followed by thorough mixing. DMSO was added only when compound plates had not been DMSO-backfilled to 2%.
# MALT-1 was thawed and kept on ice. Peptide substrate was thawed on the bench under ambient conditions. A MALT-1 enzyme working stock was prepared from Avi-tagged FL MALT-1 (40 nM in a prepared reagent volume of 16.5 μL) and the reaction buffer (13.0 mL). MALT1 working stock (5 μL) was added to each well of the microplate. MALT-1 was pre-incubated with compounds for 30 minutes at room temperature.
# Two substrate working stocks (Km and 10×Km) were prepared. The 1×Km substrate was prepared from Ac-LRSR-AMC Peptide (50 μM in a prepared reagent volume of 35.0 μL) and the reaction buffer (6.965 mL). The 10×Km substrate was prepared from Ac-LRSR-AMC Peptide (280 μM in a prepared reagent volume of 196.0 μL) and the reaction buffer (6.804 mL). The reaction was initiated by the addition of substrate working stock (5 μL, 50 μM) to Km plates and the addition of substrate working stock (5 μL 280 μM) to 10×Km plates. The plates were covered and incubated on the bench at room temperature for 90 minutes.
# Fluorescence intensity was determined using a CLARIOstar microplate reader (BMG LABTECH) using the optimised AMC mode. Before taking readings, a 70% gain was applied on the neutral control well. Compound data were normalised to % Inhibition and used to plot sigmoidal concentration response curves to yield various parameters including IC50.
row,Structure (SMILES),IC50
1,Cn1nc(-c2cccc3c2OCO3)c(C(F)(F)F)c1C(=O)Nc1cnc(-n2nccn2)c(C#N)c1 [Compound I-43],< 500 nM
2,Cn1nc(-c2cccc3c2OCCO3)c(C(F)(F)F)c1C(=O)Nc1ccnc(C(F)(F)F)c1 [Compound I-44],500 to 2500 nM
3,Cn1nc(-c2ccc(F)cc2Cl)c(C(F)(F)F)c1C(=O)Nc1ccnc(C(F)(F)F)c1 [Compound I-45],< 500 nM
4,Cn1nc(-c2c(Cl)ccc3c2OCO3)c(C(F)(F)F)c1C(=O)Nc1ccnc(C(F)(F)F)c1 [Compound I-49],< 500 nM
5,Cn1nc(-c2ccc(F)c3c2OCO3)c(C(F)(F)F)c1C(=O)Nc1ccnc(C(F)(F)F)c1 [Compound I-50],< 500 nM
6,Cn1nc(-c2cccc3c2OCCN3)c(C(F)(F)F)c1C(=O)Nc1ccnc(C(F)(F)F)c1 [Compound I-51],> 10000 nM
7,Cn1nc(-c2cccc3c2NCCO3)c(C(F)(F)F)c1C(=O)Nc1ccnc(C(F)(F)F)c1 [Compound I-54],500 to 2500 nM
8,Cc1ccc2ncccc2c1-c1nn(C)c(C(=O)Nc2ccnc(C(F)(F)F)c2)c1C(F)(F)F [Compound I-55],500 to 2500 nM
9,Cn1nc(-c2cccc3ncccc23)c(C(F)(F)F)c1C(=O)Nc1cnc(-n2nccn2)c(Cl)c1 [Compound I-58],< 500 nM
10,Cn1nc(-c2cccc3ncsc23)c(C(F)(F)F)c1C(=O)Nc1ccnc(C(F)(F)F)c1 [Compound I-60],< 500 nM
11,Cn1nc(-c2cccn3ncnc23)c(C(F)(F)F)c1C(=O)Nc1ccnc(C(F)(F)F)c1 [Compound I-64],500 to 2500 nM
12,Cn1nc(-c2cccc3c2CNC3=O)c(C(F)(F)F)c1C(=O)Nc1ccnc(C(F)(F)F)c1 [Compound I-65],< 500 nM
13,Cn1nc(-c2ccnc3ccsc23)c(C(F)(F)F)c1C(=O)Nc1ccnc(C(F)(F)F)c1 [Compound I-66],500 to 2500 nM
14,Cn1nc(-c2cncc(C#N)c2)c(C(F)(F)F)c1C(=O)Nc1ccnc(C(F)(F)F)c1 [Compound I-70],> 10000 nM
15,Cn1nc(-c2cnc3n2CCOC3)c(C(F)(F)F)c1C(=O)Nc1ccnc(C(F)(F)F)c1 [Compound I-71],> 10000 nM
16,Cn1nc(-c2ccnc3c2OCO3)c(C(F)(F)F)c1C(=O)Nc1ccnc(C(F)(F)F)c1 [Compound I-72],500 to 2500 nM
17,Cn1nc(-c2csc3ccncc23)c(C(F)(F)F)c1C(=O)Nc1ccnc(C(F)(F)F)c1 [Compound I-73],500 to 2500 nM
18,Cn1nc(-c2cnn3ccncc23)c(C(F)(F)F)c1C(=O)Nc1ccnc(C(F)(F)F)c1 [Compound I-74],> 10000 nM
19,Cn1nc(-c2cc(O)ccc2Cl)c(C(F)(F)F)c1C(=O)Nc1ccnc(C(F)(F)F)c1 [Compound I-75],500 to 2500 nM
20,CN(C)c1cc(-c2nn(C)c(C(=O)Nc3ccnc(C(F)(F)F)c3)c2C(F)(F)F)ccn1 [Compound I-76],> 10000 nM
21,Cn1nc(-c2cnc(N)c3ccccc23)c(C(F)(F)F)c1C(=O)Nc1ccnc(C(F)(F)F)c1 [Compound I-77],500 to 2500 nM
22,Cc1ncccc1-c1nn(C)c(C(=O)Nc2ccnc(C(F)(F)F)c2)c1C(F)(F)F [Compound I-79],2500 to 10000 nM
23,Cc1cncc(-c2nn(C)c(C(=O)Nc3ccnc(C(F)(F)F)c3)c2C(F)(F)F)c1 [Compound I-80],> 10000 nM
24,Cn1nc(-c2cncc(F)c2)c(C(F)(F)F)c1C(=O)Nc1ccnc(C(F)(F)F)c1 [Compound I-81],2500 to 10000 nM
25,Cn1nc(-c2cccc(S(C)(=O)=O)c2)c(C(F)(F)F)c1C(=O)Nc1ccnc(C(F)(F)F)c1 [Compound I-82],2500 to 10000 nM
26,Cn1nc(-c2ccc(F)nc2F)c(C(F)(F)F)c1C(=O)Nc1ccnc(C(F)(F)F)c1 [Compound I-83],2500 to 10000 nM
27,"Cn1nc(N2CCCc3ccccc32)c(C(F)(F)F)c1C(=O)Nc1ccnc(C(F)(F)F)c1 [Compound I-85, 3-(3,4-dihydroquinolin-1 (2H)-yl)-1-methyl-4-(trifluoromethyl)-N-(2-(trifluoromethyl)pyridin-4-yl)-1H-pyrazole-5-carboxamide]",500 to 2500 nM
28,Cn1nc(Nc2ccccc2)c(C(F)(F)F)c1C(=O)Nc1cnc(-n2nccn2)c(Cl)c1 [Compound I-86],< 500 nM

# More lines, now with the values ahead:
row,IC50,Structure (SMILES)
1,500 to 2500 nM,Cn1nc(-c2cccc3[nH]ncc23)c(C(F)(F)F)c1C(=O)Nc1ccnc(C(F)(F)F)c1 [Compound I-46]
2,< 500 nM,Cn1nc(-c2cccc3occc23)c(C(F)(F)F)c1C(=O)Nc1ccnc(C(F)(F)F)c1 [Compound I-47]
3,> 10000 nM,Cn1nc(-c2cccn(C)c2=O)c(C(F)(F)F)c1C(=O)Nc1ccnc(C(F)(F)F)c1 [Compound I-48]
4,500 to 2500 nM,COc1cccc(-c2nn(C)c(C(=O)Nc3ccnc(C(F)(F)F)c3)c2C(F)(F)F)c1OC [Compound I-52]
5,500 to 2500 nM,Cn1nc(-c2cccc3c2ccn3C)c(C(F)(F)F)c1C(=O)Nc1ccnc(C(F)(F)F)c1 [Compound I-56]
6,> 10000 nM,Cn1nc(-c2cccc3c2ccn3CC(=O)O)c(C(F)(F)F)c1C(=O)Nc1ccnc(C(F)(F)F)c1 [Compound I-57]
7,< 500 nM,Cn1nc(-c2ccccc2Cl)c(C(F)(F)F)c1C(=O)Nc1ccnc(C(F)(F)F)c1 [Compound I-59]
8,500 to 2500 nM,Cn1nc(-c2cccc3cnn(C)c23)c(C(F)(F)F)c1C(=O)Nc1ccnc(C(F)(F)F)c1 [Compound I-61]
9,2500 to 10000 nM,Cn1cc2c(-c3nn(C)c(C(=O)Nc4ccnc(C(F)(F)F)c4)c3C(F)(F)F)cccc2n1 [Compound I-62]
10,< 500 nM,Cn1nc(-c2cccc3c(=O)[nH]ccc23)c(C(F)(F)F)c1C(=O)Nc1ccnc(C(F)(F)F)c1 [Compound I-63]
11,> 10000 nM,Cn1nc(-c2cccc3cnsc23)c(C(F)(F)F)c1C(=O)Nc1ccnc(C(F)(F)F)c1 [Compound I-67]
12,500 to 2500 nM,COc1cccc(-c2nn(C)c(C(=O)Nc3ccnc(C(F)(F)F)c3)c2C(F)(F)F)c1Cl [Compound I-68]
13,2500 to 10000 nM,Cn1nc(-c2cnn3ccccc23)c(C(F)(F)F)c1C(=O)Nc1ccnc(C(F)(F)F)c1 [Compound I-69]
14,> 10000 nM,Cn1nc(-c2cccc3c(N)nccc23)c(C(F)(F)F)c1C(=O)Nc1ccnc(C(F)(F)F)c1 [Compound I-78]
15,500 to 2500 nM,Cc1coc2c(-c3nn(C)c(C(=O)Nc4ccnc(C(F)(F)F)c4)c3C(F)(F)F)cccc12 [Compound I-84]
